Experimental data taken from US20240099214A1, “PLANT DEFENCE GENE EXPRESSION” (UPL Corporation Limited, priority 2021, published 2024).

Columns and labels:
[1] = tested on: Hypersensitive response assisting protein (gene 7, Solyc07g006570.2); test: qRT-PCR expression of gene 7 in tomato leaves; format: in vivo, Tomato ecotype corbarino; parameters: key to RQ1 / RQ2 / RQ3 / RQ mean: relative expression normalized to a-tubulin housekeeping gene
Method: (§1) Tomato ecotype “corbarino” reported to be susceptible to TSWV infection was used in the experiment. Plants were grown in pots in a climatic chamber with a photoperiod of 16/8 hour at 25° C.
(§2) The viral strain (TSWV PV PV-0393) was utilized in the experiment. The virus was mechanically inoculated and propagated on tomato “corbarino”. The inoculum was prepared in an ice-cooled mortar grounding 1 gr of infected tomato tissue in 10 ml of Na-phosphate buffer 0.01M. The fresh prepared inoculum was stored in ice before use. Tomato plants at BBCH16 were dusted with Carborundum 600 mesh and selected leaves were rubbed with some droplets of inoculum. After 5 min. plants were sprayed with sterile water to remove the excess of inoculum and preserve the cell turgor.
(§3) Four treatments were compared: i) Mock inoculated; ii) TSWV; iii) 0.25% Laminarin; iv) 0.25% Laminarin+TSWV. In the last treatment the virus was inoculated 24 hrs after the laminarin application.
(§4) Total RNA was extracted from systemic infected tomato leaves by using the Quick-RNA Plant Kit (Zymo Research) following the manufacturer instructions. The extractions were carried out using three plants after 12 h, 24 h, 48 h, 72 h, 7 days after inoculation. Leaves were instantly frozen in liquid nitrogen after cutting to avoid any deterioration of the sample as well as any defense reaction. The RNA concentration was quantified by measuring the absorbance at 260 nm using a Nanodrop 2000 (Thermofisher). The purity of all of the RNA samples was assessed at an absorbance ratio of OD260/280 and OD260/230, while its structural integrity was checked by agarose gel electrophoresis. Only high-quality RNA with OD 260/280 and OD 260/230>2 was used for subsequent steps. Single-stranded cDNA was synthesized from 1 μg of total RNA using an iScript™ Select cDNA Synthesis Kit and random hexamers as primers (Bio-Rad, Milan, Italy), according to the manufacturer's instructions. Three biological replicates were created from the 3 leaves collected to test 15 genes. Alpha tubulin was used as reference gene.
(§5) qPCR reactions were performed with BioRad (Applied Biosystems, Foster City, CA, USA) using SYBR R Green. Each reaction was performed in 20 μl containing 10 μl of 2× Power SYBR Green PCR Master Mix (Life Technologies), 0.2-0.3 μM primers and cDNA samples diluted 1:20. Each qPCR reaction was performed in triplicate. Reactions were run using the cycling parameter described previously (Reid et al., 2006) and the qPCR data were analyzed by the Ct method (Pfaffl, 2001). In order to analyze the qPCR data, a-tubulin gene was used as housekeeping to determine the relative expression level of the other genes analyzed in this work. For the determination of qPCR efficiency of each primer pairs, a standard curve was performed using the following cDNA dilutions: 1:4, 1:16, 1:64; 1:256 and 1:1024. Every measurement was made in triplicate. The corresponding qPCR efficiencies (E) were calculated for every primer pair with the software 7300 System SDS software (Applied Biosystems, Foster City, CA, USA) according to the equation E=(10−1/slope−1)×100 (Rutledge and Stewart, 2008).
(§6) The significance of the differences between the gene expressions levels were compared by one-way ANOVA (p=0.01) and the means were separated by Tukey post-hoc test using SPSS ver.26 ([…]).

[2] = tested on: Nbs-Irr resistance protein (gene 3, Solyc05g009760.1); test: qRT-PCR expression of gene 3 in tomato leaves; format: in vivo, Tomato ecotype corbarino; parameters: key: relative expression normalized to a-tubulin housekeeping gene
Method: as §1, §2, §3, §4, §5, §6

laminarin
RQ1 ([1]; 12 hr, Laminarin + virus): 12.106
RQ2 ([1]; 12 hr, Laminarin + virus): 0.8295
RQ3 ([1]; 12 hr, Laminarin + virus): 10.421
RQ mean ([1]; 12 hr, Laminarin + virus): 10.274
RQ1 ([1]; 12 hr, Laminarin alone): 0.9749
RQ2 ([1]; 12 hr, Laminarin alone): 0.8446
RQ3 ([1]; 12 hr, Laminarin alone): 0.8747
RQ mean ([1]; 12 hr, Laminarin alone): 0.8981
RQ1 ([1]; 24 hr, Laminarin + virus): 13.380
RQ2 ([1]; 24 hr, Laminarin + virus): 12.897
RQ3 ([1]; 24 hr, Laminarin + virus): 10.449
RQ mean ([1]; 24 hr, Laminarin + virus): 12.242
RQ1 ([1]; 24 hr, Laminarin alone): 11.623
RQ2 ([1]; 24 hr, Laminarin alone): 12.446
RQ3 ([1]; 24 hr, Laminarin alone): 12.085
RQ mean ([1]; 24 hr, Laminarin alone): 12.051
gene 7 expression compared to TSWV treatment ([1]; 48 hr, 0.25% laminarin + TSWV inoculated 24 hrs later): inverted
gene 7 expression compared to TSWV treatment ([1]; 48 hr, 0.25% laminarin alone): inverted
RQ1 ([1]; 48 hr, Laminarin + virus): 0.7159
RQ2 ([1]; 48 hr, Laminarin + virus): 0.5334
RQ3 ([1]; 48 hr, Laminarin + virus): 0.8167
RQ mean ([1]; 48 hr, Laminarin + virus): 0.6886
RQ1 ([1]; 48 hr, Laminarin alone): 0.7103
RQ2 ([1]; 48 hr, Laminarin alone): 0.7130
RQ3 ([1]; 48 hr, Laminarin alone): 0.6351
RQ mean ([1]; 48 hr, Laminarin alone): 0.6861
RQ1 ([1]; 72 hr, Laminarin + virus): 19.008
RQ2 ([1]; 72 hr, Laminarin + virus): 20.416
RQ3 ([1]; 72 hr, Laminarin + virus): 14.535
RQ mean ([1]; 72 hr, Laminarin + virus): 17.986
RQ1 ([1]; 72 hr, Laminarin alone): 10.549
RQ2 ([1]; 72 hr, Laminarin alone): 0.4677
RQ3 ([1]; 72 hr, Laminarin alone): 11.927
RQ mean ([1]; 72 hr, Laminarin alone): 0.9051
gene 7 overexpression compared to TSWV treatment ([1]; 72 hr, other treatments (laminarin alone, laminarin+TSWV) versus TSWV): overexpression induced by the TSWV is higher compared to the other treatments
RQ1 ([2]; 12 hr, Laminarin + virus): 11.935
RQ2 ([2]; 12 hr, Laminarin + virus): 12.286
RQ3 ([2]; 12 hr, Laminarin + virus): 0.9487
RQ mean ([2]; 12 hr, Laminarin + virus): 11.236
RQ1 ([2]; 12 hr, Laminarin alone): 10.545
RQ2 ([2]; 12 hr, Laminarin alone): 10.498
RQ3 ([2]; 12 hr, Laminarin alone): 0.8329
RQ mean ([2]; 12 hr, Laminarin alone): 0.9791
RQ1 ([2]; 24 hr, Laminarin + virus): 11.167
RQ2 ([2]; 24 hr, Laminarin + virus): 10.509
RQ3 ([2]; 24 hr, Laminarin + virus): 13.936
RQ mean ([2]; 24 hr, Laminarin + virus): 11.871
RQ1 ([2]; 24 hr, Laminarin alone): 12.229
RQ2 ([2]; 24 hr, Laminarin alone): 13.976
RQ3 ([2]; 24 hr, Laminarin alone): 11.514
RQ mean ([2]; 24 hr, Laminarin alone): 12.573
RQ1 ([2]; 48 hr, Laminarin + virus): 12.976
RQ2 ([2]; 48 hr, Laminarin + virus): 26.960
RQ3 ([2]; 48 hr, Laminarin + virus): 15.208
RQ mean ([2]; 48 hr, Laminarin + virus): 18.381
RQ1 ([2]; 48 hr, Laminarin alone): 27.419
RQ2 ([2]; 48 hr, Laminarin alone): 26.255
RQ3 ([2]; 48 hr, Laminarin alone): 14.098
RQ mean ([2]; 48 hr, Laminarin alone): 22.591
RQ1 ([2]; 72 hr, Laminarin + virus): 47.747
RQ2 ([2]; 72 hr, Laminarin + virus): 48.776
RQ3 ([2]; 72 hr, Laminarin + virus): 16.860
RQ mean ([2]; 72 hr, Laminarin + virus): 37.794
RQ1 ([2]; 72 hr, Laminarin alone): 19.725
RQ2 ([2]; 72 hr, Laminarin alone): 58.615
RQ3 ([2]; 72 hr, Laminarin alone): 21.699
RQ mean ([2]; 72 hr, Laminarin alone): 33.346
